# Measured values published in patent US4369191A, “Naphthalenetetrayltetrakis(sulfonylimino)-tetrabenzene di- and tricarboxylic acids” (American Cyanamid Company, priority 1981, dated 1983).
# Where a name gives a salt, the structure may show the parent alone.
# Columns and labels:
# activated human C1 = target: T1, activated human C1 (Homo sapiens, UniProt P09871); assay: Test Code 026 (C1 inhibitor); format: biochemical; conditions: in vitro; serial twofold dilution assay, higher well number indicates higher activity
# T1 construct: fluid-phase human C2 as substrate in presence of C4
# Text: (§1) An active inhibitor protects C2 from C1 and C4; (ii) Test Code 035 (C3-C9 inhibitor)--This test determines the ability of the late components of human complement (C3-C9) to lyse EAC 142 in the presence of appropriate dilutions of the test compound. An active inhibitor protects EAC 142 from lysis by human C3-C9; (iii) Test Code 036 (C-Shunt inhibitor)--In this test human erythrocytes rendered fragile are lysed in autologous serum via the shunt pathway activated by cobra venom factor in the presence of appropriate dilutions of the test compound. Inhibition of the shunt pathway results in failure of lysis; (iv) Cap 50 Test--Here, appropriate amounts of the test compound are added to a pool of guinea pig serum in vitro, after which the undiluted serum capillary tube assay of U.S. Pat. No. 3,876,376 is run. The concentration of compound inhibiting 50% is reported; and (v) Guinea Pig Intraperitoneal Test (GPIP)--Guinea pigs weighing about 300 g are dosed intraperitoneally (i.p.) with 200 mg/kg of the test compound dissolved in saline and adjusted to pH 7-8. […] Percent inhibition is calculated by comparison with simultaneous controls. […]
# [1] = tested on: late components of human complement (C3-C9); assay: Test Code 035 (C3-C9 inhibitor), lysis of EAC 142; format: biochemical; conditions: in vitro; serial twofold dilution assay, higher well number indicates higher activity
# Text: as §1
# shunt pathway = assay: Test Code 036 (C-Shunt inhibitor), lysis of human erythrocytes in autologous serum activated by cobra venom factor; format: cell-based; conditions: in vitro; serial twofold dilution assay, higher well number indicates higher activity
# Text: as §1
# complement activity = assay: Guinea Pig Intraperitoneal Test (GPIP); format: in vivo; conditions: 200 mg/kg i.p.; for In vivo Activity (Guinea Pigs) % Inhibition Intraperitoneal, 30 minutes: serum complement activity 30 minutes after injection; for In vivo Activity (Guinea Pigs) % Inhibition Intraperitoneal, 60 minutes: serum complement activity 60 minutes after injection; for In vivo Activity (Guinea Pigs) % Inhibition Intraperitoneal, 120 minutes: serum complement activity 120 minutes after injection
# Text: An active inhibitor protects C2 from C1 and C4; (ii) Test Code 035 (C3-C9 inhibitor)--This test determines the ability of the late components of human complement (C3-C9) to lyse EAC 142 in the presence of appropriate dilutions of the test compound. An active inhibitor protects EAC 142 from lysis by human C3-C9; (iii) Test Code 036 (C-Shunt inhibitor)--In this test human erythrocytes rendered fragile are lysed in autologous serum via the shunt pathway activated by cobra venom factor in the presence of appropriate dilutions of the test compound. Inhibition of the shunt pathway results in failure of lysis; (iv) Cap 50 Test--Here, appropriate amounts of the test compound are added to a pool of guinea pig serum in vitro, after which the undiluted serum capillary tube assay of U.S. Pat. No. 3,876,376 is run. The concentration of compound inhibiting 50% is reported; and (v) Guinea Pig Intraperitoneal Test (GPIP)--Guinea pigs weighing about 300 g are dosed intraperitoneally (i.p.) with 200 mg/kg of the test compound dissolved in saline and adjusted to pH 7-8. Approximately 0.4 ml blood samples, taken by orbital sinus puncture 30 minutes and one hour after injections, are collected directly into centrifuge tubes; 5 ml blood samples, taken by decapitation 2 hours after injection are collected directly into diSPo® beakers. The samples were allowed to clot, centrifuged, and the resultant sera were assayed for complement activity using the capillary complement assay. Percent inhibition is calculated by comparison with simultaneous controls. The results of the GPIP appear in Table I together with results of Test Code 026, 035, 036 and Cap 50.
# T1 sequence (P09871 16-688): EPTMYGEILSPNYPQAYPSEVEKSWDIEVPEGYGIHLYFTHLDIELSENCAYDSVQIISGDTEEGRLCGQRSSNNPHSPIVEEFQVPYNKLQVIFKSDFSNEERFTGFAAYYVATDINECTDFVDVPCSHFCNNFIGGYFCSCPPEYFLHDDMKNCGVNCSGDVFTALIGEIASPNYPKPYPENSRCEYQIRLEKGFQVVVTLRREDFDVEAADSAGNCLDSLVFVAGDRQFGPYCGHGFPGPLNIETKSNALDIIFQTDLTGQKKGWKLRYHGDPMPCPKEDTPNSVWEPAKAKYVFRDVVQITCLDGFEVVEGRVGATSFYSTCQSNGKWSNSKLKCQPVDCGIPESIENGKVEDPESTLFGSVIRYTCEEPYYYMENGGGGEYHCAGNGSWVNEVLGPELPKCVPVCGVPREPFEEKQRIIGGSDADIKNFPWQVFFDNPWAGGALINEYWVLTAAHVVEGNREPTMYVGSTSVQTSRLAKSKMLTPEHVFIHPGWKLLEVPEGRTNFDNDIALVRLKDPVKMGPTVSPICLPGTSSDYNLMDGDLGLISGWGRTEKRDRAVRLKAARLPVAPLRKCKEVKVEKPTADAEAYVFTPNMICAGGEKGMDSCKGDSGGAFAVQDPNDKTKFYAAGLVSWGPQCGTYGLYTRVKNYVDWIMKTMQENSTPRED
# T1 sequence (P00736 18-705 partner): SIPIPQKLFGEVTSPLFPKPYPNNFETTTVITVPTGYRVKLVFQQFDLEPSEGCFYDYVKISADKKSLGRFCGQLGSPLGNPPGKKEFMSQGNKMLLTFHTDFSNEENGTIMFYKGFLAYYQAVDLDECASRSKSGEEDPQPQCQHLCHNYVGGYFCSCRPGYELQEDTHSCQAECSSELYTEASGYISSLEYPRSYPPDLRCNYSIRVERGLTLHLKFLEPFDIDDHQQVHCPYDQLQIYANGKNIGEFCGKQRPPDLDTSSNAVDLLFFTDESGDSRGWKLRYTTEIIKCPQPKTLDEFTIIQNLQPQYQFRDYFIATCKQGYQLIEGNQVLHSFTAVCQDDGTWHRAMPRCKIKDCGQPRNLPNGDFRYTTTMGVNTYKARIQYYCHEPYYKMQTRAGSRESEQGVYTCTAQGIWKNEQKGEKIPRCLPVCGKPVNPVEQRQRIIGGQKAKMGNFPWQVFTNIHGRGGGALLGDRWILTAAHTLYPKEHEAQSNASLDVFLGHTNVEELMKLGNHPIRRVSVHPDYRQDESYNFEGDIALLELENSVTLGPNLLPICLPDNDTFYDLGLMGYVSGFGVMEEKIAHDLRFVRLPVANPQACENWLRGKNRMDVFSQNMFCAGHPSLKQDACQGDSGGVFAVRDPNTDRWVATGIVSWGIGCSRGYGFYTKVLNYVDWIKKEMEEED
# T1 sequence (P02745 23-245 partner): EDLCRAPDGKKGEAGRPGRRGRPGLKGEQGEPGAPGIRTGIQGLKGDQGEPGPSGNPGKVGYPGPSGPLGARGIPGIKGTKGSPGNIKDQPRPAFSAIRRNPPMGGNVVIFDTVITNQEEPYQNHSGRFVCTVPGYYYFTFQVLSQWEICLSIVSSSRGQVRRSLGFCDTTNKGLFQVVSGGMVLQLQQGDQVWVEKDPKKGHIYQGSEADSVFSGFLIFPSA
# T1 sequence (P02746 28-253 partner): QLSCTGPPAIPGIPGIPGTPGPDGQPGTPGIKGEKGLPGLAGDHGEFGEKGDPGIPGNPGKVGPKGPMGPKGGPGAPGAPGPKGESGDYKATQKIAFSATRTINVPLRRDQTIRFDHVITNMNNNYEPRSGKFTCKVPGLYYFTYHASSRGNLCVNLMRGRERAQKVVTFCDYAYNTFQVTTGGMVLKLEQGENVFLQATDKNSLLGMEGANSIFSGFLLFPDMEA
# T1 sequence (P02747 29-245 partner): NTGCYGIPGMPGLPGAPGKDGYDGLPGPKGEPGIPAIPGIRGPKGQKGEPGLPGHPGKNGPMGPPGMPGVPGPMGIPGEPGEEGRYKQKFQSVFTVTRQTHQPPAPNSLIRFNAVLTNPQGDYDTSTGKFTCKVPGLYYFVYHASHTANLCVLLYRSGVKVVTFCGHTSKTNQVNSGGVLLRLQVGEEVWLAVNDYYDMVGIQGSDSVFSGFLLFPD
SMILES,Cl 026* Wells (activated human C1) [Wells],C-Late 035* Wells [1] [Wells],C-Shunt Inhibition 036* Wells (shunt pathway) [Wells],"In vivo Activity (Guinea Pigs) % Inhibition Intraperitoneal, 30 minutes (complement activity) [%]","In vivo Activity (Guinea Pigs) % Inhibition Intraperitoneal, 60 minutes (complement activity) [%]","In vivo Activity (Guinea Pigs) % Inhibition Intraperitoneal, 120 minutes (complement activity) [%]"
"O=C(O)c1cc(NS(=O)(=O)c2cc(S(=O)(=O)Nc3cc(C(=O)O)c(C(=O)O)c(C(=O)O)c3)c3cc(S(=O)(=O)Nc4cc(C(=O)O)c(C(=O)O)c(C(=O)O)c4)cc(S(=O)(=O)Nc4cc(C(=O)O)c(C(=O)O)c(C(=O)O)c4)c3c2)cc(C(=O)O)c1C(=O)O [5,5',5"",5'""-[1,3,5,7-Naphthalenetetrayltetrakis(sulfonylimino)]tetra-1,2,3-benzenetricarboxylic acid, dodecasodium salt]",8,5,5,80,77,85
"O=C([O-])c1cc(NS(=O)(=O)c2cc(S(=O)(=O)Nc3cc(C(=O)[O-])cc(C(=O)[O-])c3)c3cc(S(=O)(=O)Nc4cc(C(=O)[O-])cc(C(=O)[O-])c4)cc(S(=O)(=O)Nc4cc(C(=O)[O-])cc(C(=O)[O-])c4)c3c2)cc(C(=O)[O-])c1.[Na+].[Na+].[Na+].[Na+].[Na+].[Na+].[Na+].[Na+] [5,5',5"",5""'-[1,3,5,7-Naphthalenetetrayltetrakis(sulfonylimino)]tetraisophthalic acid, octasodium salt]",7,2,6,66,71,76
